In ChEMBL document CHEMBL5523737, “Novel Jatrophane Diterpenoids from Euphorbia esula Promotes Lipid Clearance by Transcriptional Regulation of PCSK9” (J Med Chem, 2024):
Activity calls are given as the source filed them. The rule behind the calls is not given here.

Assays:
[1] = test system: HepG2; assay: Induction of LDL uptake in human HepG2 cells incubated for 3 hrs under dark condition by DiI-LDL DMEM staining based fluorescence microplate reader assay; format: functional, cell-based
[2] = target: Proprotein convertase subtilisin/kexin type 9 (Homo sapiens) (UniProt Q8NBP7); assay: Inhibition of PCSK9 transcription in human HepG2 cells at 5 uM by AlphaLISA method; format: cell-based
[3] = Cytotoxicity against human HepG2 cells assessed as cell viability at 20 uM after 24 hrs by CCK8 assay; format: toxicity, cell-based; settings: read-out: Activity
[4] = target: Proprotein convertase subtilisin/kexin type 9 (Homo sapiens) (UniProt Q8NBP7); assay: Inhibition of PCSK9 transcription in human HepG2 cells by AlphaLISA method; format: cell-based
[5] = target: Proprotein convertase subtilisin/kexin type 9 (Homo sapiens) (UniProt Q8NBP7); assay: Inhibition of PCSK9 (unknown origin) promoter activity expressed in HEK293 cells co-transfected with SV40 at 5 to 10 uM incubated for 24 hrs by dual luciferase assay; format: cell-based; settings: dose 5-10 µM
[6] = test system: HepG2; assay: Induction of LDL uptake in HNF1alpha knockdown human HepG2 cells at 5 uM incubated for 3 hrs under dark condition by DiI-LDL DMEM staining based fluorescence microplate reader assay; format: functional, cell-based
[7] = target: Hepatocyte nuclear factor 1-alpha (Homo sapiens) (UniProt P20823); assay: Binding affinity to HNF1alpha in human HepG2 cells assessed as increase in thermal stability at 10 uM after 1 hr by CETSA; format: cell-based
[8] = Hepatotoxicity in HFD induced C57BL/6 mouse assessed as decrease in liver index at 10 to 30 mg/kg, ip administered for 3 weeks; format: toxicity, organism-based; settings: in vivo, 504 h, dose 10-30 mg/kg
[9] = target: Proprotein convertase subtilisin/kexin type 9 (Homo sapiens) (UniProt Q8NBP7); assay: Inhibition of PCSK9 (unknown origin) promoter activity expressed in HNF1alpha overexpressed HEK293 cells co-transfected with SV40 incubated for 24 hrs by dual luciferase assay; format: cell-based
[10] = test system: Mus musculus; assay: Hypolipidemic activity in HFD induced C57BL/6 mouse assessed as reduction in serum TG level at 10 to 30 mg/kg, ip administered for 3 weeks; format: functional, organism-based; settings: dose 10-30 mg/kg
[11] = test system: HepG2; assay: Upregulation of LDLR protein level in human HepG2 cells at 5 uM after 6 hrs by Western blotting analysis; format: functional, cell-based
[12] = test system: HepG2; assay: Upregulation of LDLR protein level in HNF1alpha knockdown human HepG2 cells at 10 uM incubated for 24 hrs by Western blotting analysis; format: functional, cell-based
[13] = test system: HepG2; assay: Upregulation of LDLR mRNA level in HNF1alpha knockdown human HepG2 cells incubated for 24 hrs by qRT-PCR analysis; format: functional, cell-based
[14] = Toxicity in HFD induced C57BL/6 mouse assessed as change in food intake at 10 to 30 mg/kg, ip administered for 3 weeks; format: organism-based; settings: in vivo, 504 h, dose 10-30 mg/kg
[15] = test system: HepG2; assay: Downregulation of PCSK9 mRNA level in HNF1alpha knockdown human HepG2 cells incubated for 24 hrs by qRT-PCR analysis; format: functional, cell-based
[16] = test system: HepG2; assay: Upregulation of LDLR mRNA level in human HepG2 cells by qRT-PCR analysis; format: functional, cell-based
[17] = test system: HepG2; assay: Inhibition of HNF1alpha nuclear transport in human HepG2 cells at 1 to 10 uM after 24 hrs by Western blotting analysis; format: functional, cell-based; settings: dose 1-10 µM
[18] = test system: Mus musculus; assay: Hypolipidemic activity in HFD induced C57BL/6 mouse assessed as reduction in serum TC level at 10 to 30 mg/kg, ip administered for 3 weeks; format: functional, organism-based; settings: dose 10-30 mg/kg
[19] = Hepatotoxicity in HFD induced C57BL/6 mouse assessed as decrease in serum AST level at 10 to 30 mg/kg, ip administered for 3 weeks; format: toxicity, organism-based; settings: in vivo, 504 h, dose 10-30 mg/kg
[20] = Nephrotoxicity in HFD induced C57BL/6 mouse assessed as change in serum UREA level at 10 to 30 mg/kg, ip administered for 3 weeks; format: toxicity, organism-based; settings: in vivo, 504 h, dose 10-30 mg/kg
[21] = test system: Hepatocyte; assay: Downregulation of PCSK9 mRNA level in HFD treated mouse hepatocytes at 5 to 20 uM incubated for 24 hrs by qRT-PCR analysis; format: functional, cell-based; settings: dose 5-20 µM
[22] = Effect on HEK293 cell viability at 20 uM; format: toxicity, cell-based; settings: human, hek293, 20 µM
[23] = test system: HepG2; assay: Effect on HNF1alpha protein level in human HepG2 cells at 5 uM incubated for 24 hrs by Western blotting analysis; format: functional, cell-based
[24] = test system: Hepatocyte; assay: Downregulation of PCSK9 protein level in HFD treated mouse hepatocytes at 5 to 20 uM incubated for 24 hrs by Western blotting analysis; format: functional, cell-based; settings: dose 5-20 µM
[25] = test system: Mus musculus; assay: Hypolipidemic activity in HFD induced C57BL/6 mouse assessed as reduction in serum VLDL-C level at 10 to 30 mg/kg, ip administered for 3 weeks; format: functional, organism-based; settings: dose 10-30 mg/kg
[26] = test system: Mus musculus; assay: Hypolipidemic activity in HFD induced C57BL/6 mouse assessed as reduction in serum LDL-C level at 10 to 30 mg/kg, ip administered for 3 weeks; format: functional, organism-based; settings: dose 10-30 mg/kg
[27] = target: Proprotein convertase subtilisin/kexin type 9 (Homo sapiens) (UniProt Q8NBP7); assay: Inhibition of PCSK9 (unknown origin) promoter activity expressed in HNF1alpha knockdown HEK293 cells co-transfected with SV40 incubated for 24 hrs by dual luciferase assay; format: cell-based
[28] = test system: HepG2; assay: Induction of LDL uptake in human LDLR knockdown HepG2 cells at 5 uM incubated for 3 hrs under dark condition by DiI-LDL DMEM staining based fluorescence microplate reader assay; format: functional, cell-based
[29] = target: Proprotein convertase subtilisin/kexin type 9 (Homo sapiens) (UniProt Q8NBP7); assay: Inhibition of PCSK9 (unknown origin) promoter activity expressed in HEK293 cells co-transfected with SV40 incubated for 24 hrs by dual luciferase assay; format: cell-based; settings: dose 1-20 µM
[30] = test system: HepG2; assay: Downregulation of PCSK9 protein level in human HepG2 cells by Western blotting analysis; format: functional, cell-based; settings: dose 1-20 µM
[31] = test system: HepG2; assay: Downregulation of PCSK9 protein level in HNF1alpha knockdown human HepG2 cells at 10 uM incubated for 24 hrs by Western blotting analysis; format: functional, cell-based
[32] = test system: HepG2; assay: Downregulation of PCSK9 protein level in human HepG2 cells at 5 uM after 3 hrs by Western blotting analysis; format: functional, cell-based
[33] = test system: HepG2; assay: Downregulation of PCSK9 mRNA level in human HepG2 cells by qRT-PCR analysis; format: functional, cell-based; settings: dose 1-20 µM
[34] = test system: HepG2; assay: Upregulation of LDLR protein level in human HepG2 cells by Western blotting analysis; format: functional, cell-based
[35] = Hepatotoxicity in HFD induced C57BL/6 mouse assessed as decrease in serum ALT level at 10 to 30 mg/kg, ip administered for 3 weeks; format: toxicity, organism-based; settings: in vivo, 504 h, dose 10-30 mg/kg
[36] = test system: HepG2; assay: Induction of LDL uptake in human PCSK9 knockdown HepG2 cells at 5 uM incubated for 3 hrs under dark condition by DiI-LDL DMEM staining based fluorescence microplate reader assay; format: functional, cell-based
[37] = test system: Mus musculus; assay: Upregulation of […] protein level in HFD induced C57BL/6 mouse liver at 10 to 30 mg/kg, ip administered for 3 weeks by Western blotting analysis; format: functional, organism-based; settings: dose 10-30 mg/kg
[38] = Nephrotoxicity in HFD induced C57BL/6 mouse assessed as change in serum CREA level at 10 to 30 mg/kg, ip administered for 3 weeks; format: toxicity, organism-based; settings: in vivo, 504 h, dose 10-30 mg/kg
[39] = test system: Mus musculus; assay: Downregulation of PCSK9 protein level in HFD induced C57BL/6 mouse liver at 10 to 30 mg/kg, ip administered for 3 weeks by Western blotting analysis; format: functional, organism-based; settings: dose 10-30 mg/kg

Chain of Hepatocyte nuclear factor 1-alpha (Homo sapiens) (P20823 whole entry): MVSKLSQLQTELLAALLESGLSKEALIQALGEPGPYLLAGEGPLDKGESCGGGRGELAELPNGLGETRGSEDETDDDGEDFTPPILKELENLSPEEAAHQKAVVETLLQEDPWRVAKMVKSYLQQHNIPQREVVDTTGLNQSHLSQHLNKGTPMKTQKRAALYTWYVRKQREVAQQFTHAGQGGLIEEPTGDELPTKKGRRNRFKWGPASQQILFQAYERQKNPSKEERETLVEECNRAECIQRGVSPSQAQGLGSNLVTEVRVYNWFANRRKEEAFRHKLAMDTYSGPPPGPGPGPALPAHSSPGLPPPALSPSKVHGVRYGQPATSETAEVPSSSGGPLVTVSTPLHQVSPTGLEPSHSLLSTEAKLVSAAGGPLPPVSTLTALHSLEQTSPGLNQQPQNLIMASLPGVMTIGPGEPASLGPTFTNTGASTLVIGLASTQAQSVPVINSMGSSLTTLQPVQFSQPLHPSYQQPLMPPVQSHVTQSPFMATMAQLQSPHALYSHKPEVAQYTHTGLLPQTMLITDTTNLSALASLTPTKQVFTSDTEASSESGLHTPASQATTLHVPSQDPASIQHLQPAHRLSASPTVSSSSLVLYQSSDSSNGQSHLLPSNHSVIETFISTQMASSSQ

C=C1[C@@H](OC(C)=O)[C@H]2[C@@H](OC(C)=O)[C@](C)(OC(C)=O)C[C@]2(OC(C)=O)C(=O)[C@H](C)/C=C/C(C)(C)C(=O)[C@@H](OC(=O)C(C)C)[C@H]1OC(=O)CC
Activity [1]: Active
inhibition [2]: 28%
viability at 24 h, 20 µM [3]: > 95%
inhibition [4]: Dose-Dependent Effect

C=C1[C@@H](OC(C)=O)[C@H]2[C@@H](OC(C)=O)[C@](C)(OC(C)=O)C[C@]2(OC(C)=O)C(=O)[C@H](C)/C=C/C(C)(C)C(=O)[C@@H](OC(C)=O)[C@H]1OC(=O)C(C)C
Activity [1]: Active
inhibition [2]: 22.3%
viability at 24 h, 20 µM [3]: > 95%
inhibition [4]: Dose-Dependent Effect

C=C1[C@@H](OC(C)=O)[C@H]2[C@@H](OC(C)=O)[C@@H](C)C[C@]2(OC(C)=O)C(=O)[C@H](C)/C=C/C(C)(C)C(=O)C[C@H]1OC(=O)C(C)C
Activity [1]: Active
inhibition [2]: 35.7%
viability at 24 h, 20 µM [3]: > 95%
inhibition [4]: Dose-Dependent Effect

C=C1[C@@H](OC(C)=O)[C@H]2[C@@H](OC(C)=O)[C@](C)(OC(C)=O)C[C@]2(OC(C)=O)C(=O)[C@H](C)[C@]2(C)O[C@H]2C(C)(C)[C@H](OC(C)=O)[C@@H](OC(=O)c2ccccc2)[C@H]1OC(=O)C(C)C
inhibition [2]: 0.7%

C=C1[C@@H](OC(C)=O)[C@H]2[C@@H](OC(C)=O)[C@](C)(OC(C)=O)C[C@]2(OC(C)=O)C(=O)[C@H](C)[C@]2(C)O[C@H]2C(C)(C)[C@H](OC(C)=O)[C@@H](OC(=O)C(C)C)[C@H]1OC(=O)C(C)C
inhibition [2]: 0.1%

C=C1[C@@H](OC(C)=O)[C@H]2[C@@H](OC(C)=O)[C@](C)(OC(=O)Cc3ccccc3)C[C@]2(OC(C)=O)C(=O)[C@H](C)/C=C/C(C)(C)[C@H](OC(=O)c2cccnc2)C[C@H]1OC(=O)C(C)C
inhibition [5]: Active
Activity [1]: Active
inhibition [2]: 56.1%
Activity [6]: Active
viability at 24 h, 20 µM [3]: > 95%
inhibition [4]: Dose-Dependent Effect

C=C1[C@@H](OC(C)=O)[C@H]2[C@@H](OC(C)=O)[C@](C)(OC(C)=O)C[C@]2(OC(C)=O)C(=O)[C@H](C)/C=C/C(C)(C)C(=O)[C@@H](OC(=O)C(C)C)[C@H]1OC(=O)C(C)C
Activity [1]: Active
inhibition [2]: 30.4%
viability at 24 h, 20 µM [3]: > 95%
inhibition [4]: Dose-Dependent Effect

C=C1[C@@H](OC(C)=O)[C@H]2[C@@H](OC(=O)[C@@H](C)CC)[C@@H](C)C[C@]2(OC(C)=O)C(=O)[C@H](C)/C=C/C(C)(C)[C@H](OC(C)=O)[C@@H](OC(C)=O)[C@H]1OC(C)=O
inhibition [5]: Active
Activity [1]: Active
inhibition [2]: 56.1%
Activity [6]: Active
viability at 24 h, 20 µM [3]: > 95%
inhibition [4]: Dose-Dependent Effect

C=C1[C@@H](OC(C)=O)[C@H]2[C@@H](OC(C)=O)[C@@H](C)C[C@]2(OC(C)=O)C(=O)[C@H](C)/C=C/C(C)(C)[C@H](O)C[C@H]1OC(=O)C(C)C
inhibition [2]: 5.7%

C=C1[C@@H](OC(C)=O)[C@H]2[C@@H](OC(C)=O)[C@@H](C)C[C@]2(OC(C)=O)C(=O)[C@H](C)/C=C/C(C)(C)C(=O)[C@@H](OC(C)=O)[C@H]1OC(C)=O
inhibition [2]: < 1%

C=C1[C@@H](OC(C)=O)[C@H]2[C@@H](OC(C)=O)[C@@H](C)C[C@]2(OC(C)=O)C(=O)[C@H](C)/C=C/C(C)(C)C(=O)C[C@H]1OC(C)=O
Activity [7]: Active
Activity [8]: Toxic
inhibition [9]: Active
Activity [10]: Active
Activity [1]: Dose-Dependent Effect
Activity [11]: Active
inhibition [2]: 36.4%
Activity [12]: inactive
Activity [6]: inactive
Activity [13]: inactive
Activity [14]: Non-Toxic
Activity [15]: inactive
Activity [16]: Dose-Dependent Effect
inhibition [17]: Active
Activity [18]: Active
Activity [19]: Toxic
Activity [20]: Non-Toxic
Activity [21]: Active
viability at 24 h, 20 µM [3]: > 95%
Activity [22]: Non-Toxic
Activity [23]: inactive
Activity [24]: Active
Activity [25]: Active
inhibition [4]: Dose-Dependent Effect
Activity [26]: Active
inhibition [27]: inactive
Activity [28]: inactive
inhibition [29]: Dose-Dependent Effect
Activity [30]: Dose-Dependent Effect
Activity [31]: inactive
Activity [32]: Active
Activity [33]: Dose-Dependent Effect
Activity [34]: Dose-Dependent Effect
Activity [35]: Non-Toxic
Activity [36]: Active
Activity [37]: Active
Activity [38]: Non-Toxic
Activity [39]: Active

C=C1[C@@H](OC(C)=O)[C@H]2[C@@H](OC(C)=O)[C@@H](C)C[C@]2(OC(C)=O)C(=O)[C@H](C)/C=C/C(C)(C)[C@H](OC(=O)c2ccccc2)[C@@H](OC(C)=O)[C@H]1OC(C)=O
inhibition [2]: 3.1%

C=C1[C@@H](OC(C)=O)[C@H]2[C@@H](OC(C)=O)[C@@H](C)C[C@]2(OC(C)=O)C(=O)[C@H](C)/C=C/C(C)(C)[C@H](OC(C)=O)[C@@H](OC(C)=O)[C@H]1OC(C)=O
inhibition [2]: 0.1%

C=C1[C@@H](OC(C)=O)[C@H]2[C@@H](OC(C)=O)[C@](C)(OC(C)=O)C[C@]2(OC(C)=O)C(=O)[C@H](C)[C@]2(C)O[C@H]2C(C)(C)[C@H](OC(C)=O)[C@@H](OC(C)=O)[C@H]1OC(=O)C(C)C
inhibition [2]: 1.2%
